The values that follow come from PubChem BioAssay (NCI).

Some test systems named below: RXF 393 renal; OVCAR-8 ovarian; UACC-257 melanoma; SF-539 CNS; MALME-3M melanoma; NCI-H522 lung; NCI-H460 lung; CCRF-CEM leukemia.
What all share (assay): inhibition of tumour cell growth, NCI panel, 48 h

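Cells were grown in 96-well plates and exposed to each compound for 48 hours at five concentrations; endpoints were interpolated linearly between bracketing concentrations, or set to the highest concentration if not reached. GI50 is the concentration that inhibits growth by half. TGI: total growth inhibition.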

Consider `CCCCC(CC)CN=C(N)NC(N)=NCCCCCCN=C(N)NC(N)=NCC(CC)CCCC` (stereo not drawn), for which the results for the GI50 in the test on RXF 393 renal, in the test on OVCAR-8 ovarian and in the test on UACC-257 melanoma were 2.27 µM, 2.08 µM and 2.62 µM, respectively. Besides, the TGI in the test with RXF 393 renal was determined as 6.43 µM; in the test with OVCAR-8 ovarian it was 5.19 µM; in the test on UACC-257 melanoma, 8.73 µM.

On to `CCOC(=O)c1c2c(n3ccccc13)C(=O)c1ccccc1C2=O`, for which the TGI was more than 100 µM with SF-539 CNS; more than 100 µM with MALME-3M melanoma; more than 100 µM with NCI-H522 lung; more than 100 µM with RXF 393 renal; 15.6 µM in the test on NCI-H460 lung; more than 100 µM in the test on OVCAR-8 ovarian. Besides, in the test on UACC-257 melanoma, the TGI is more than 100 µM.

On to `O=C(/C=C/c1ccccc1)c1cc(Br)ccc1O`, for which the TGI with NCI-H522 lung is 28.4 µM; with RXF 393 renal, 37.4 µM; in the test on NCI-H460 lung, 33.7 µM; in the test on OVCAR-8 ovarian, 30.4 µM; in the test with CCRF-CEM leukemia it was 33.9 µM; with UACC-257 melanoma, 27.9 µM.

Turning to `COc1ccc2c(c1)/C(=C\c1c(C)nc3sccn13)C(=O)N2`, the GI50 in the test on MALME-3M melanoma is less than 0.0478 µM; in the test on NCI-H522 lung it was less than 0.01 µM; with RXF 393 renal, 0.722 µM; in the test on OVCAR-8 ovarian it was 0.306 µM; in the test on CCRF-CEM leukemia, 0.0979 µM. The TGI is 97.4 µM in the test with MALME-3M melanoma, more than 90.4 µM in the test on RXF 393 renal, more than 100 µM in the test with NCI-H460 lung and more than 100 µM in the test on CCRF-CEM leukemia.

Regarding `Oc1cccc2ccc(N/N=C/c3cc(CN4CCCCC4)c(O)c4ncccc34)nc12`, the GI50 in the test on SF-539 CNS was 0.0481 µM; in the test with MALME-3M melanoma it was 0.223 µM; with NCI-H522 lung it was 0.0314 µM; in the test with NCI-H460 lung it was 0.0386 µM; in the test on OVCAR-8 ovarian, 0.0508 µM; with CCRF-CEM leukemia, 0.0558 µM. The GI50 in the test on UACC-257 melanoma was 0.256 µM. In addition, the TGI in the test on SF-539 CNS was found to be 2.68 µM; in the test on MALME-3M melanoma it was 4.49 µM; in the test on NCI-H522 lung, 1.21 µM; with NCI-H460 lung, 1.67 µM; in the test on OVCAR-8 ovarian, 2.06 µM; in the test on CCRF-CEM leukemia, 10.8 µM. Besides, in the test on UACC-257 melanoma, the TGI came out at 1.04 µM.

On to `COc1ccc(-c2ccc(/C=N/n3c(COc4ccc(Cl)cc4Cl)nn(CN4CCOCC4)c3=S)o2)c([N+](=O)[O-])c1`, for which the GI50 is 18.8 µM in the test on SF-539 CNS; 24.6 µM in the test with MALME-3M melanoma; 45.1 µM with NCI-H522 lung; 24.3 µM in the test with RXF 393 renal; 25.6 µM in the test with NCI-H460 lung; 16.2 µM in the test with CCRF-CEM leukemia. Moreover, the TGI in the test on SF-539 CNS was 62.9 µM; with MALME-3M melanoma, 52.7 µM; with NCI-H522 lung, more than 100 µM; in the test with RXF 393 renal, 88.9 µM; with NCI-H460 lung, more than 100 µM; in the test with CCRF-CEM leukemia it was 43.8 µM.

Regarding `CCOC(=O)c1cc(NS(=O)(=O)c2ccccc2)cc(C(=O)OCC)c1`, the GI50 with SF-539 CNS, with MALME-3M melanoma, in the test with NCI-H522 lung, in the test on RXF 393 renal, in the test with NCI-H460 lung and with CCRF-CEM leukemia was more than 100 µM in each case. Moreover, the GI50 with UACC-257 melanoma was more than 100 µM. Besides, the TGI with SF-539 CNS, in the test with MALME-3M melanoma, in the test with NCI-H522 lung, in the test with RXF 393 renal, with NCI-H460 lung and in the test with CCRF-CEM leukemia was more than 100 µM throughout. This molecule also returned a TGI in the test with UACC-257 melanoma of more than 100 µM.

In the case of `COc1ccc(-c2n/c(=C\c3c(O)[nH]c4ccc(OC)cc34)cc3c2=Nc2ccccc2-3)cc1`, the results for the GI50 in the test with SF-539 CNS and in the test with UACC-257 melanoma were 1.85 µM and 2.07 µM, respectively. In addition, the TGI was determined as 3.4 µM in the test on SF-539 CNS and 4.48 µM with UACC-257 melanoma.

Consider `O=C(O)/C=C\C(=O)N1C/C(=C\c2ccccc2Cl)C(=O)/C(=C/c2ccccc2Cl)C1`, for which the GI50 in the test on SF-539 CNS is 3.01 µM; in the test with MALME-3M melanoma, 3.96 µM; with NCI-H522 lung, 1.96 µM; with RXF 393 renal, 1.84 µM; in the test with OVCAR-8 ovarian it was 3.88 µM; in the test on CCRF-CEM leukemia, 1.43 µM. In the test on UACC-257 melanoma, the GI50 was 6.44 µM. Moreover, the TGI was 8.24 µM in the test with SF-539 CNS; 18.4 µM with MALME-3M melanoma; 4.1 µM in the test on NCI-H522 lung; 3.36 µM in the test with RXF 393 renal; 17 µM in the test with OVCAR-8 ovarian; 6.66 µM with CCRF-CEM leukemia. For the same molecule, in the test on UACC-257 melanoma, the TGI stood at 20.4 µM.

Take `CCCCCCCCN=C(N)c1ccc(N2CCN(c3ccc(C(N)=NCCCCCCCC)cc3)CC2)cc1`: the GI50 with NCI-H522 lung was 2.27 µM; in the test on RXF 393 renal it was 1.13 µM; in the test with NCI-H460 lung it was 1.63 µM; in the test on OVCAR-8 ovarian it was 1.49 µM; in the test with UACC-257 melanoma, 4.03 µM. Also, the TGI in the test with NCI-H522 lung was more than 50 µM; in the test with RXF 393 renal, 4.49 µM; in the test with NCI-H460 lung, more than 50 µM; in the test on OVCAR-8 ovarian, 6.65 µM; with UACC-257 melanoma, 13.2 µM.

Take `NCCOCCOCCNc1nc(Cc2ccccc2)nc(NCCCN2CCCC2=O)n1`: the GI50 in the test on SF-539 CNS, in the test with MALME-3M melanoma, with RXF 393 renal, with NCI-H460 lung, with OVCAR-8 ovarian and with CCRF-CEM leukemia was more than 100 µM each time. For the same molecule, the GI50 with UACC-257 melanoma is more than 100 µM. Also, the TGI in the test on SF-539 CNS, in the test on MALME-3M melanoma, in the test on RXF 393 renal, with NCI-H460 lung, in the test with OVCAR-8 ovarian and with CCRF-CEM leukemia was more than 100 µM throughout. In addition, the TGI in the test on UACC-257 melanoma was more than 100 µM.

Consider `COc1cc(/C=C/c2cc(O)c3cc(C(C)=O)c(=O)oc3c2)cc2c1O[C@]1(C)CC[C@@H](O)C(C)(C)[C@H]1C2`, for which the TGI is more than 23.6 µM in the test with SF-539 CNS; more than 33 µM in the test on MALME-3M melanoma; more than 53 µM in the test with NCI-H522 lung; more than 53.2 µM in the test with NCI-H460 lung; more than 95.1 µM in the test with OVCAR-8 ovarian; more than 29.4 µM in the test on CCRF-CEM leukemia. This molecule also had a TGI in the test on UACC-257 melanoma of more than 30.5 µM. Further, the GI50 is more than 25.9 µM in the test with NCI-H522 lung and more than 28.2 µM with OVCAR-8 ovarian.

In the case of `COc1cccc2c1c(C(=O)C(=O)Nc1cc(C)no1)cn2Cc1ccc(F)cc1`, the GI50 with SF-539 CNS was 7.52 µM; with MALME-3M melanoma, 93.2 µM; with NCI-H522 lung it was 8.51 µM; with NCI-H460 lung, 5.15 µM; in the test on OVCAR-8 ovarian, 25.2 µM; in the test on CCRF-CEM leukemia it was 6.24 µM. The GI50 in the test with UACC-257 melanoma is 9.25 µM. Further, the TGI was more than 80 µM in the test with SF-539 CNS; more than 100 µM in the test with MALME-3M melanoma; more than 100 µM in the test on NCI-H522 lung; 46.9 µM with NCI-H460 lung; more than 100 µM with OVCAR-8 ovarian; more than 100 µM in the test with CCRF-CEM leukemia. In addition, in the test with UACC-257 melanoma, the TGI was found to be 71.8 µM.
